± gives the expanded uncertainty stated by the source. One block for each molecule: values may come before it.
What was measured:
[1] = Liquid, Ebulliometric method (Recirculating still)
[2] = refractive index (Na D-line) (dimensionless); settings: 298.15 K; 101.3 kPa; Liquid; Standard Abbe refractometry

Compound: Cc1ccccc1 [toluene]
- vapor or sublimation pressure ([1]; 383.82 K): 101.33 ± 1 kPa

- vapor or sublimation pressure ([1]; 404.05 K): 101.33 ± 1 kPa
- refractive index [2]: 1.4042 ± 0.0004
Compound: CC(C)CCO [3-methylbutan-1-ol]

- vapor or sublimation pressure ([1]; 353.27 K): 101.33 ± 1 kPa
Compound: c1ccccc1 [benzene]

- vapor or sublimation pressure ([1]; 415.19 K): 101.33 ± 1 kPa
- refractive index [2]: 1.3977 ± 0.0004
Compound: CC(=O)OCCC(C)C [3-methylbutyl ethanoate]

- vapor or sublimation pressure ([1]; 463.93 K): 101.33 ± 1 kPa
- refractive index [2]: 1.4779 ± 0.0004
Compound: C[S+](C)[O-] [dimethyl sulfoxide]

— the NIST ThermoML archive (doi:10.1021/acs.jced.6b00733)
